{
  "source": "patent US12648923B2",
  "about": "“Dietary butyrate and its uses” (SOCIETE DES PRODUITS NESTLE S.A., priority 2019, dated 2026)",
  "molecular_target": "T1, porcine pancreatic lipase (from pancreatin) (Sus scrofa, UniProt P00591)",
  "T1 construct": "pancreatin (Porcine, USP×8, P7585); purchased Sigma-Aldrich P7585; host or cells: porcine pancreas extract (pancreatin)",
  "T1 sequence (P00591 1-450)": "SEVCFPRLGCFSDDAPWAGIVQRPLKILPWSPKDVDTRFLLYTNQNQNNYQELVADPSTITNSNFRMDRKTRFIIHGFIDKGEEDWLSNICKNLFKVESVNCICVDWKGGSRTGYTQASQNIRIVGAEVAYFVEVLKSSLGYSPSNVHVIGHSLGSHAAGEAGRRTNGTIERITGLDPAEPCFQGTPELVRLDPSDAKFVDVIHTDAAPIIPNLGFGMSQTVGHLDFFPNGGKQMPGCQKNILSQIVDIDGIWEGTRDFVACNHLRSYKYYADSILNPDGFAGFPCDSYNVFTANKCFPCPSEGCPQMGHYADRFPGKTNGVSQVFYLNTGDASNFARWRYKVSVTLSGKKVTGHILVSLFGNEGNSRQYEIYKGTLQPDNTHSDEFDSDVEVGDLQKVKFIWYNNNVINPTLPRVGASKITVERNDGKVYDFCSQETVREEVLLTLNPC",
  "T1 sequence (P02703 23-112 partner)": "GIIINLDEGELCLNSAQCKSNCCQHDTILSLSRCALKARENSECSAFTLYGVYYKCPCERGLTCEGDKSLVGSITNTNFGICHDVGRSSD",
  "assay": "In vitro digestion in simulated intestinal fluid (SIF), pH-stat",
  "format": "in vitro ADME",
  "details": "SIF alone; emulsion with 200 mg fat; pH 6.8, 37° C.",
  "description": "10 wt % oil in water emulsions stabilised by 0.3 wt % polyoxyethylene sorbitan mono-oleate (Tween® 80) were prepared by mixing the Tween 80 into the oil phase at 40° C., then mixing with the water phase using a magnetic stirrer. An emulsion was then created using a Hielscher UP 400S ultrasonic probe homogeniser equipped with a 5 mm diameter rod-like probe by applying 100% amplitude at 100% cycle for 2 minutes whilst the sample was cooled using ice water.\nThe lipid emulsion (2 mL) containing 200 mg of fat was subjected to gastrointestinal in vitro lipolysis. […]\nThe intestinal digestion step was performed in the pH stat where the pH was kept constant at 6.8 by addition of NaOH (0.05 M). […] During the intestinal phase of digestion, the kinetics of digestion were followed using a pH-stat (TIM856, Radiometer) technique and expressed as titratable acid (rather than fatty acid) that was calculated by the equation: TA=VNaOH×0:05×1000 […]\nSince the digestion of dietary lipids involves lipases of both gastric and intestinal origin, lipid digestibility was assessed using two digestion models i) simulated intestinal fluid (SIF) with porcine pancreatic lipase (PPL) and ii) sequential digestion in simulated gastric fluid (SGF) with rabbit gastric lipase (RGL) followed by simulated intestinal fluid (SIF) with porcine pancreatic lipase (PPL).",
  "data": [
    {"smiles": "CCCC(=O)OCC(COC(=O)CCC)OC(=O)CCC", "note": "[tributyrin]", "values": [
      {"measurement": "initial rate of lipolysis", "value": "223 ± 59", "unit": "µmol/min"}
    ]}
  ]
}
